Assay results: patent publication US7300918B2, “Method of producing vaccines from protein signal oligopeptides” (priority 1994, dated 2007)
Values joined by “and” are separate entries in the source; they are usually repeats but may differ in a detail not shown here. Equal entries are not always repeated.

Tested on: Hep G2 cells
Assay: Cholesterol measurement in Hep G2 cells exposed to HMG CoA Reductase peptides
Format: cell-based, human
Conditions: 24 hrs; for Cholesterol Content Cell / Cholesterol Content Media: triplicate; for Total Cholesterol: cell + media
Source text: Cholesterol Measurement in Hep G2 Cells Exposed to HMG CoA Reductase Peptides:
A. Selection of therapeutic oligopeptides for these expenments • i. The peptides were selected according to the method described herein. In brief, 6 oligopeptides corresponding to the hydrophilic amino acid maxima of human hydroxy-methyl-glutaryl-CoA-reductase were selected according to the maximum hydrophilicity determining algorithm described herein. The following sequences were selected. • I. N-SQDEVREN-C (SEQ ID NO:42) • II. N-ELSRESREGR-C (SEQ ID NO:44) • III. N-RVLEEEENK-C (SEQ ID NO:46) • IV. N-QKCDSVEE-C (SEQ ID NO:56) • V. N-EETGINRERKVE-C (SEQ ID NO:60) • VI. N-EPEIELPREPRPNEE-C (SEQ ID NO:64)
B. Materials and methods • i. Hep G2 cells were seeded into six-well dishes at 30,0000 cells/well in MEM-supplemented media with 10% FBS. Cells were grown to near confluency and exposed to • I. media alone • II. Mevastatin 5ΦMol (Cholestrol-lowering Statin drug) and, • III. HMG CoA Reductase peptides at 1, 10 and 100 ΦMol. • ii. All treatments were carried out in triplicate. After 24 hrs the media was removed and saved. • iii. The cells were washed with 1 ml of PBS and combined with the media. The cells were harvested with 1 ml of 0.1 N NaOH. • iv. Samples, both media and cells, were saponified with 0.5 ml 50% KOH, 3 ml ethanol, separately at 80EC for 2 hrs. • v. After cooling, the samples were extracted twice with petroleum ether and washed with NaOH. • vi. The samples were the dried under nitrogen and suspended in 200 Φl ethanol. • vii. 50 Φl of this suspension was used for determination of cholesterol. Cholesterol was determined in the samples and standards using colorimetric assay (Sigma Kit). • viii. Protein was determined by Lowry's method and the results were expressed as Φgm cholesterol/mg protein. C. Results • i.

With “N-EPEIELPREPRPNEE-C [Peptide 6, oligopeptide corresponding to a hydrophilic amino acid maximum of human hydroxy-methyl-glutaryl-CoA-reductase]” the “Cholesterol Lowering in % of Control” value (1 ΦM) was 4.0%, the “Cholesterol Content Cell” value (1 ΦM) was 144.3 ± 7.5 Φ gm/mg protein and the “Cholesterol Content Media” value (1 ΦM) was 47.4 ± 0.5 Φ gm/mg protein. For the same compound, the “Cholesterol Lowering in % of Control” value (10 ΦM) was 8.0%, the “Cholesterol Content Cell” value (10 ΦM) was 136.0 ± 12.2 Φ gm/mg protein and the “Cholesterol Content Media” value (10 ΦM) was 48.0 ± 3.4 Φ gm/mg protein. For the same compound, the “Cholesterol Lowering in % of Control” value (100 ΦM) was 9.0%, the “Cholesterol Content Cell” value (100 ΦM) was 132.0 ± 4.4 Φ gm/mg protein and the “Cholesterol Content Media” value (100 ΦM) was 50.4 ± 1.0 Φ gm/mg protein. The “Total Cholesterol” value (1 ΦM) was 192.0 ± 8.0 Φ gm/mg protein, the “Total Cholesterol” value (10 ΦM) was 184.0 ± 8.4 Φ gm/mg protein and the “Total Cholesterol” value (100 ΦM) was 182.4 ± 4.8 Φ gm/mg protein.

With “N-RVLEEEENK-C [Peptide 3, oligopeptide corresponding to a hydrophilic amino acid maximum of human hydroxy-methyl-glutaryl-CoA-reductase]” the “Cholesterol Lowering in % of Control” value (1 ΦM) was 10.0%, the “Cholesterol Content Cell” value (1 ΦM) was 137.3 ± 4.5 Φ gm/mg protein and the “Cholesterol Content Media” value (1 ΦM) was 64.0 ± 2.7 Φ gm/mg protein. For the same compound, the “Cholesterol Lowering in % of Control” value (10 ΦM) was 10.0%, the “Cholesterol Content Cell” value (10 ΦM) was 135.0 ± 4.5 Φ gm/mg protein and the “Cholesterol Content Media” value (10 ΦM) was 65.5 ± 4.7 Φ gm/mg protein. For the same compound, the “Cholesterol Lowering in % of Control” value (100 ΦM) was 10.0%, the “Cholesterol Content Cell” value (100 ΦM) was 135.0 ± 7.0 Φ gm/mg protein and the “Cholesterol Content Media” value (100 ΦM) was 65.5 ± 1.4 Φ gm/mg protein. For the same compound, the “Total Cholesterol” value (1 ΦM) was 201.3 ± 3.3 Φ gm/mg protein, the “Total Cholesterol” value (10 ΦM) was 200.7 ± 9.0 Φ gm/mg protein and the “Total Cholesterol” value (100 ΦM) was 200.5 ± 5.4 Φ gm/mg protein.

With “N-SQDEVREN-C [Peptide 1, oligopeptide corresponding to a hydrophilic amino acid maximum of human hydroxy-methyl-glutaryl-CoA-reductase]” the “Cholesterol Lowering in % of Control” value (1 ΦM) was 28.0%, the “Cholesterol Content Cell” value (1 ΦM) was 92.5 ± 4.7 Φ gm/mg protein and the “Cholesterol Content Media” value (1 ΦM) was 65.2 ± 4.0 Φ gm/mg protein. The “Cholesterol Lowering in % of Control” value (10 ΦM) was 30.0%, the “Cholesterol Content Cell” value (10 ΦM) was 88.6 ± 1.6 Φ gm/mg protein and the “Cholesterol Content Media” value (10 ΦM) was 60.6 ± 0.5 Φ gm/mg protein. For the same compound, the “Cholesterol Lowering in % of Control” value (100 ΦM) was 30.0%, the “Cholesterol Content Cell” value (100 ΦM) was 94.0 ± 4.0 Φ gm/mg protein and the “Cholesterol Content Media” value (100 ΦM) was 61.1 ± 2.4 Φ gm/mg protein. The “Total Cholesterol” value (1 ΦM) was 158.7 ± 5.6 Φ gm/mg protein, the “Total Cholesterol” value (10 ΦM) was 149.1 ± 2.0 Φ gm/mg protein and the “Total Cholesterol” value (100 ΦM) was 155.3 ± 6.4 Φ gm/mg protein.

In the case of “N-EETGINRERKVE-C [Peptide 5, oligopeptide corresponding to a hydrophilic amino acid maximum of human hydroxy-methyl-glutaryl-CoA-reductase]”, the “Cholesterol Lowering in % of Control” value (1 ΦM) is reported as 1.5%, the “Cholesterol Content Cell” value (1 ΦM) is reported as 140.7 ± 8.6 Φ gm/mg protein and the “Cholesterol Content Media” value (1 ΦM) is reported as 56.8 ± 1.0 Φ gm/mg protein. The “Cholesterol Lowering in % of Control” value (10 ΦM) was 0.0%, the “Cholesterol Content Cell” value (10 ΦM) was 149.0 ± 4.4 Φ gm/mg protein and the “Cholesterol Content Media” value (10 ΦM) was 50.7 ± 1.0 Φ gm/mg protein. The “Cholesterol Lowering in % of Control” value (100 ΦM) was 0.0%, the “Cholesterol Content Cell” value (100 ΦM) was 161.7 ± 23.5 Φ gm/mg protein and the “Cholesterol Content Media” value (100 ΦM) was 48.0 ± 1.6 Φ gm/mg protein. The “Total Cholesterol” value (1 ΦM) was 197.0 ± 9.2 Φ gm/mg protein, the “Total Cholesterol” value (10 ΦM) was 200.0 ± 5.0 Φ gm/mg protein and the “Total Cholesterol” value (100 ΦM) was 210.0 ± 25.0 Φ gm/mg protein.

In the case of “N-QKCDSVEE-C [Peptide 4, oligopeptide corresponding to a hydrophilic amino acid maximum of human hydroxy-methyl-glutaryl-CoA-reductase]”, the “Cholesterol Lowering in % of Control” value (1 ΦM) is reported as 8.0%, the “Cholesterol Content Cell” value (1 ΦM) is reported as 134.7 ± 3.2 Φ gm/mg protein and the “Cholesterol Content Media” value (1 ΦM) is reported as 50.4 ± 2.5 Φ gm/mg protein. For the same compound, the “Cholesterol Lowering in % of Control” value (10 ΦM) was 10.0%, the “Cholesterol Content Cell” value (10 ΦM) was 126.1 ± 4.2 Φ gm/mg protein and the “Cholesterol Content Media” value (10 ΦM) was 49.0 ± 1.0 Φ gm/mg protein. The “Cholesterol Lowering in % of Control” value (100 ΦM) was 9.0%, the “Cholesterol Content Cell” value (100 ΦM) was 127.7 ± 9.3 Φ gm/mg protein and the “Cholesterol Content Media” value (100 ΦM) was 53.8 ± 0.5 Φ gm/mg protein. The “Total Cholesterol” value (1 ΦM) was 184.3 ± 5.5 Φ gm/mg protein, the “Total Cholesterol” value (10 ΦM) was 175.2 ± 3.8 Φ gm/mg protein and the “Total Cholesterol” value (100 ΦM) was 181.7 ± 9.3 Φ gm/mg protein.

With “N-ELSRESREGR-C [Peptide 2, oligopeptide corresponding to a hydrophilic amino acid maximum of human hydroxy-methyl-glutaryl-CoA-reductase]” the “Cholesterol Lowering in % of Control” value (1 ΦM) was 29.0%, the “Cholesterol Content Cell” value (1 ΦM) was 94.0 ± 8.3 Φ gm/mg protein and the “Cholesterol Content Media” value (1 ΦM) was 64.3 ± 4.2 Φ gm/mg protein. The “Cholesterol Lowering in % of Control” value (10 ΦM) was 33.0%, the “Cholesterol Content Cell” value (10 ΦM) was 85.0 ± 8.4 Φ gm/mg protein and the “Cholesterol Content Media” value (10 ΦM) was 63.7 ± 9.5 Φ gm/mg protein. The “Cholesterol Lowering in % of Control” value (100 ΦM) was 34.0%, the “Cholesterol Content Cell” value (100 ΦM) was 86.0 ± 4.7 Φ gm/mg protein and the “Cholesterol Content Media” value (100 ΦM) was 59.0 ± 6.0 Φ gm/mg protein. The “Total Cholesterol” value (1 ΦM) was 158.3 ± 6.3 Φ gm/mg protein, the “Total Cholesterol” value (10 ΦM) was 148.6 ± 11.8 Φ gm/mg protein and the “Total Cholesterol” value (100 ΦM) was 146.9 ± 8.8 Φ gm/mg protein.

With `CC[C@H](C)C(=O)O[C@H]1CCC=C2C=C[C@H](C)[C@H](CC[C@@H]3C[C@@H](O)CC(=O)O3)[C@H]21` [Mevastatin, reference compound] the “Cholesterol Lowering in % of Control” value (5 ΦM) was 19.0% and 18.0%, the “Cholesterol Content Cell” value (5 ΦM) was 125.0 ± 4.6 Φ gm/mg protein and 124.4 ± 4.4 Φ gm/mg protein and the “Cholesterol Content Media” value (5 ΦM) was 37.5 ± 3.0 Φ gm/mg protein and 57.5 ± 5.2 Φ gm/mg protein. The “Total Cholesterol” value (5 ΦM) was 162.6 ± 7.6 Φ gm/mg protein and 182.0 ± 7.0 Φ gm/mg protein.
